Assay results published in patent US20080021217A1, “HETEROCYCLIC INHIBITORS OF RHO KINASE” (priority 2006, published 2008).
Structures can show the parent of a compound that is named as a salt.

Legend:
[1] = biological target: T1, recombinant N-terminal GST-tagged human Rho kinase 1 (ROCK1, amino acids 1-535) (Homo sapiens, UniProt Q13464); assay: In vitro Rho kinase assay (luciferase-based ATP consumption), ROCK1; format: biochemical
T1 construct: ROCK1, amino acids 1-535, Invitrogen Inc., cat. #PV-3691; GST (N); purchased Invitrogen Inc. PV-3691
T1 sequence (Q13464 1-535): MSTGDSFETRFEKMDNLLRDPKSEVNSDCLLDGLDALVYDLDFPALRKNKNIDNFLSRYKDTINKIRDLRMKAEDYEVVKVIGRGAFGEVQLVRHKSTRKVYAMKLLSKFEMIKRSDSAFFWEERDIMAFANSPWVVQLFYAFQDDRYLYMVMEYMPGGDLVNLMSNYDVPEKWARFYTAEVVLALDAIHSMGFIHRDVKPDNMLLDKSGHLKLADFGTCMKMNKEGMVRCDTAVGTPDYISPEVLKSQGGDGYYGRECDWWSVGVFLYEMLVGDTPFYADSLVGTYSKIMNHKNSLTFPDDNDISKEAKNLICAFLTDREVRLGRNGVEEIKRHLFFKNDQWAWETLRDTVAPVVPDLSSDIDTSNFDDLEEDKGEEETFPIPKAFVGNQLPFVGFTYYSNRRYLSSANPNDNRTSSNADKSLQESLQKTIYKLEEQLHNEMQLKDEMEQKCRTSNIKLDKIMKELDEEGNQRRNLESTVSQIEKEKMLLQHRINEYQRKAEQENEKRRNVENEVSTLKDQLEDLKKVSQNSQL

[2] = biological target: T2, recombinant N-terminal GST-tagged human Rho kinase 2 (ROCK2, amino acids 1-552) (Homo sapiens, UniProt O75116); assay: In vitro Rho kinase assay (luciferase-based ATP consumption), ROCK2; format: biochemical
T2 construct: ROCK2, amino acids 1-552, Invitrogen Inc., cat #PV3759; GST (N); purchased Invitrogen Inc. PV3759
T2 sequence (O75116 1-552): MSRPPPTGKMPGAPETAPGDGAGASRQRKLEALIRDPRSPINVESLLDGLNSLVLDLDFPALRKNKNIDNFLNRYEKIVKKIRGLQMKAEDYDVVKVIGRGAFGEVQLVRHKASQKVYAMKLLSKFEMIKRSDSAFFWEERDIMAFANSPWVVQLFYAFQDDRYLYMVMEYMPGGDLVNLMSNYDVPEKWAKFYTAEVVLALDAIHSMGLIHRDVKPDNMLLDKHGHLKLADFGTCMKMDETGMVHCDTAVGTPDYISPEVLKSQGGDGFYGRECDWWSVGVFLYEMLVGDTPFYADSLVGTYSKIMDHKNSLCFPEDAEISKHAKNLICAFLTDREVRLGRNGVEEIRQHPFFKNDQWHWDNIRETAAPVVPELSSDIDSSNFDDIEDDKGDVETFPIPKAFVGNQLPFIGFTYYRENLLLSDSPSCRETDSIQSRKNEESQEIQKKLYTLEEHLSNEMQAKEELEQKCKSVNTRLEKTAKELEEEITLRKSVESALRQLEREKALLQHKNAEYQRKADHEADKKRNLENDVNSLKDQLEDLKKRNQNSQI

[3] = test system: lasered (hypertensive) eyes of conscious cynomolgus monkeys; assay: Acute IOP response in lasered (hypertensive) eyes of conscious cynomolgus monkeys; format: in vivo; conditions: instilled in right eyes, IOP at 1, 3 and 6 hours; for Peak % Reduction in IOP vs. Control at 0.3%: compound at 0.3%; for Peak % Reduction in IOP vs. Control at 1.0%: compound at 1.0%
Source text: Acute IOP Response in Lasered (Hypertensive) Eyes of Conscious Cynomolgus Monkeys
Intraocular pressure (IOP) can be determined with an Alcon Pneumatonometer after light corneal anesthesia with 0.1% proparacaine. Eyes are washed with saline after each measurement. After a baseline IOP measurement, test compound is instilled in one […] aliquot to the right eyes only of nine cynomolgus monkeys. Vehicle is instilled in the right eyes of six additional animals. Subsequent IOP measurements are taken at 1, 3, and 6 hours, and peak reduction in IOP is reported below in Table 2 as percent of IOP lowering versus the control for each of the given concentrations of compound.
A more detailed description of the assay used herein may be found in May et al., “Evaluation of the Ocular Hypotensive Response of Serotonin 5-HT1A and 5-HT2 Receptor Ligands in Conscious Ocular Hypertensive Cynomolgus Monkeys,” J. of Pharmacology and Experimental Therapeutics, vol. 306(1), pp. 301-309 (2003), the disclosure of which is hereby incorporated by reference as if written herein in its entirety.

| SMILES | IC50 [1] [µM] | IC50 [2] [µM] | Peak % Reduction in IOP vs. Control at 0.3% [3] [%] | Peak % Reduction in IOP vs. Control at 1.0% [3] [%] |
| --- | --- | --- | --- | --- |
| CC(C)C(=O)Oc1ccc(C(=O)NCc2nc(-c3ccncc3)n[nH]2)c(O)c1 [Example 35, 3-Hydroxy-4-((3-(pyridin-4-yl)-1H-1,2,4-triazol-5-yl)methylcarbamoyl)phenyl isobutyrate] | < 5 | < 5 | 8.6 |  |
| Cc1cccc(C(=O)NCc2nc(-c3ccncc3)n[nH]2)c1O [Example 22, 2-hydroxy-3-methyl-N-((3-(pyridin-4-yl)-1H-1,2,4-triazol-5-yl)methyl)benzamide] | < 5 | < 5 | 11.1 |  |
| O=C(NCc1nc(-c2ccncc2)c[nH]1)c1ccc(O)cc1O [Example 6, 2,4-dihydroxy-N-((4-(pyridin-4-yl)-1H-imidazol-2-yl)methyl)benzamide] | < 5 | < 5 | 5.8 |  |
| O=C(NCc1nc(-c2ccncc2)n[nH]1)c1ccc(O)cc1O [Example 15, 2,4-dihydroxy-N-((3-(pyridin-4-yl)-1H-1,2,4-triazol-5-yl)methyl)benzamide] | < 5 | < 5 | 14.9 | 9.8 |
| CC(=O)Oc1ccc(C(=O)NCc2nc(-c3ccncc3)n[nH]2)c(O)c1 [Example 36, 3-Hydroxy-4-((3-(pyridin-4-yl)-1H-1,2,4-triazol-5-yl)methylcarbamoyl)phenyl acetate] | < 5 | < 5 | 8.4 |  |
| O=C(NCc1nc(-c2ccncc2)n[nH]1)c1ccc(O)cc1O [Ex. 15 HCl, 2,4-dihydroxy-N-((3-(pyridin-4-yl)-1H-1,2,4-triazol-5-yl)methyl)benzamide] |  |  |  | 8.8 |
| NC(=O)c1cc(-c2ccncc2)n[nH]1 [Example 11, 3-(pyridin-4-yl)-1H-pyrazole-5-carboxamide] | > 5 | > 5 |  |  |
| Oc1ccc(C(O)CCc2nc(-c3ccncc3)n[nH]2)cc1 (centres unmarked) [Example 64, 4-(1-hydroxy-3-(3-(pyridin-4-yl)-1H-1,2,4-triazol-5-yl)propyl)phenol] | > 5 | > 5 |  |  |
| COc1ccc(C(=O)NCc2nc(-c3ccncc3)no2)cc1 [Example 4, 4-methoxy-N-((3-(pyridin-4-yl)-1,2,4-oxadiazol-5-yl)methyl)benzamide] | > 5 | > 5 |  |  |
| O=C(NCc1nc(-c2ccncc2)n[nH]1)c1n[nH]c2ccccc12 [Example 33, N-((3-(Pyridin-4-yl)-1H-1,2,4-triazol-5-yl)methyl)-1H-indazole-3-carboxamide] | > 5 | < 5 |  |  |
| O=C(NCc1nc(-c2c[nH]c3ncccc23)cs1)c1cccs1 [Example 75, N-((4-(1H-pyrrolo [2,3-b]pyridin-3-yl)thiazol-2-yl)methyl)thiophene-2-carboxamide] | < 5 | < 5 |  |  |
| O=C(NCc1nc(-c2c[nH]c3ncccc23)n[nH]1)c1ccc(O)cc1O [Example 69] | < 5 | < 5 |  |  |
| CC(C)(C)OC(=O)NCC[C@H](NC(=O)c1ccc(O)cc1O)c1nc(-c2ccncc2)n[nH]1 [Example 77, (S)-tert-Butyl 3-(2,4-dihydroxybenzamido)-3-(3-(pyridin-4-yl)-1H-1,2,4-triazol-5-yl)propylcarbamate] | < 5 | < 5 |  |  |
| Cc1cccc(C(=O)NCc2nc(-c3ccncc3)c[nH]2)c1O [Example 7, 2-hydroxy-3-methyl-N-((4-(pyridin-4-yl)-1H-imidazol-2-yl)methyl)benzamide] | < 5 | < 5 | 11.0 |  |
| O=C(NCc1nc(-c2ccncc2)no1)c1cccs1 [Example 2, N-((3-(pyridin-4-yl)-1,2,4-oxadiazol-5-yl)methyl)thiophene-2-carboxamide] | > 5 | > 5 |  |  |
| O=C(O)c1ccc(C(=O)NCc2nc(-c3ccncc3)n[nH]2)cc1 [Example 31, 4-((3-(Pyridin-4-yl)-1H-1,2,4-triazol-5-yl)methylcarbamoyl)benzoic acid] | > 5 | < 5 |  |  |
| Cc1ccsc1C(=O)NCc1nc(-c2ccncc2)n[nH]1 [Example 47, 3-Methyl-N-((3-(pyridin-4-yl)-1H-1,2,4-triazol-5-yl)methyl)thiophene-2-carboxamide] | < 5 | < 5 |  |  |
| CS(=O)(=O)Nc1cccc(C(=O)NCc2nc(-c3ccncc3)n[nH]2)c1 [Example 21, 3-(methylsulfonamido)-N-((3-(pyridin-4-yl)-1H-1,2,4-triazol-5-yl)methyl)benzamide] | > 5 | > 5 |  |  |
| CC(C)c1cccc(C(=O)NCc2nc(-c3ccncc3)n[nH]2)c1O [Example 41, 2-Hydroxy-3-isopropyl-N-((3-(pyridin-4-yl)-1H-1,2,4-triazol-5-yl)methyl)benzamide] | < 5 | < 5 |  |  |
